Molecules are shown by their SMILES.

Format in all cases: in vivo
Test [1] deals with velvetleaf (Abutilon theophrasti Medik.). The experiment in a line: Example 1: pot test, foliar treatment of velvetleaf, visual growth inhibition rate. To be noted: 12th day after foliar treatment. The method, then:
(§1) Upland field soil was put into a 1/1,000,000 hectare pot, and seeds of velvetleaf (Abutilon theophrasti Medik.) were sown. […] Further, the growth inhibition rate (expected value) was calculated in accordance with the Colby's formula.

The test system is the same in test [2]. In words: Example 2: pot test, foliar treatment of velvetleaf, visual growth inhibition rate. Particulars: 15th day after foliar treatment. Here is the method:
as §1

Test [3] has the same test system. The experiment in a line: Example 3: pot test, foliar treatment of velvetleaf, pyroxsulam versus penoxsulam. The method, then: as §1

Regarding `COc1cc(OC)n2nc(NS(=O)(=O)c3c(C(F)(F)F)ccnc3OC)nc2n1` [Pyroxsulam, pyroxsulam], the “Growth inhibition rate (%) Measured value (A)” value in test [1] (dose 0.5 g/ha) is given as 2%; in test [1] (dose 1.5 g/ha), 17%; in test [1] (dose 2.25 g/ha) it was 25%; in test [1] (dose 3 g/ha), 27%; in test [2] (dose 0.125 g/ha), 0%; in test [2] (dose 0.25 g/ha), 0%. Besides, the “Growth inhibition rate (%) Measured value (A)” value in test [2] (dose 0.5 g/ha) was determined as 0%; in test [2] (dose 3 g/ha) it was 20%; in test [2] (dose 4 g/ha), 30%; in test [2] (dose 5 g/ha) it was 33%; in test [2] (dose 6 g/ha) it was 35%; in test [3] (dose 0.5 g/ha, 8th day after foliar treatment), 0%. Moreover, in test [3] (dose 3 g/ha, 8th day after foliar treatment), the “Growth inhibition rate (%) Measured value (A)” value is 32%.
As a reminder, the inhibition is the change of the read-out against control, counted positive when it falls. In the case of `COc1cnc(OC)n2nc(NS(=O)(=O)c3c(OCC(F)F)cccc3C(F)(F)F)nc12` [Penoxsulam, penoxsulam], the inhibition at 0.5 g/ha in test [3] (Abutilon theophrasti, dose 0.5 g/ha, 8th day after foliar treatment, read-out: Growth inhibition rate (%) Measured value (A)) came out at 0%. Also, in test [3] (Abutilon theophrasti, dose 0.75 g/ha, 8th day after foliar treatment, read-out: Growth inhibition rate (%) Measured value (A)), the inhibition at […] turned out to be 0%. In test [3] (Abutilon theophrasti, dose 3 g/ha, 8th day after foliar treatment, read-out: Growth inhibition rate (%) Measured value (A)), the inhibition at 3 g/ha was determined as 37%. The “grow inhibition compared with expected (Colby)” value in test [3] (combined with tolpyralate, summary in words of Table 3, 8th day) was “a grow inhibition rate more than expected was not obtained”.
Take `CCn1ncc(C(=O)c2ccc(S(C)(=O)=O)c(OCCOC)c2C)c1OC(C)OC(=O)OC` (stereo not drawn) [Tolpyralate, tolpyralate]: the “Growth inhibition rate (%) Measured value (A)” value is recorded as 20% in test [1] (dose 2.5 g/ha); 27% in test [1] (dose 3.75 g/ha); 37% in test [2] (dose 2.5 g/ha); 10% in test [3] (dose 2.5 g/ha, 8th day after foliar treatment).

The record behind these values is US12239133B2, “Herbicidal composition” (ISHIHARA SANGYO KAISHA, LTD., priority 2019, dated 2025).
